Laboratory results taken from US9115085B2, “Crystalline forms of a prolyl hydroxylase inhibitor” (FibroGen, Inc., priority 2012, dated 2015).

How the values were obtained:
[1] = Solid form stability on storage (XRPD); assay type: physicochemical; conditions: for XRPD pattern / form after storage: 40° C./75% RH
Description: X-Ray Powder Diffraction patterns were collected on a Bruker AXS C2 GADDS diffractometer using Cu Kα radiation (40 kV, 40 mA), automated XYZ stage, laser video microscope for auto-sample positioning and a HiStar 2-dimensional area detector. X-ray optics consists of a single Gobel multilayer mirror coupled with a pinhole collimator of 0.3 mm. […] Alternatively, X-Ray Powder Diffraction patterns were collected on a Bruker D8 diffractometer using Cu Kα radiation (40 kV, 40 mA), θ-2θ goniometer, and divergence of V4 and receiving slits, a Ge monochromator and a Lynxeye detector. […] The software used for data collection was Diffrac Plus XRD Commander v2.5.0 and the data were analyzed and presented using Diffrac Plus EVA v11.0.0.2 or v13.0.0.2. Samples were run under ambient conditions as flat plate specimens using powder as received. The sample was gently packed into a cavity cut into polished, zero-background (510) silicon wafer. The sample was rotated in its own plane during analysis. The details of the data collection are: • Angular range: 2 to 42°2θ • Step size: 0.05°2θ • Collection time: 0.5 s/step • Analysis duration: 7 minutes Differential Scanning Calorimetry (DSC)

Moisture sorption = assay type: physicochemical; conditions: from 5% to 95% relative humidity; lost on desorption
Hep3B cells = assay: Cell-based EPO assay; set-up: species or system human; conditions: 30 μM compound in DMSO compared to DMSO only control, 72 hours
Method: Hep3B cells (human hepatocellular carcinoma cells from ATCC, cat #HB-8064) were plated at 25,000 cells per well 96 well plates. The next day, the cells were washed once with DMEM (Cellgro, cat #10-013-CM)+0.5% fetal bovine serum (Cellgro, cat #35-010-CV) and incubated with various concentrations of compound or vehicle control (0.15% DMSO) in DMEM+0.5% fetal bovine serum for 72 hours. Cell free culture supernatants were generated by transfer to a conical bottom 96 well plate and centrifugation for 5 minutes at 2000 rpm. The supernatant was quantitated for EPO using a human EPO ELISA kit (R&D Systems, cat #DEP 00). The EPO values for the compounds reported herein (e.g., Table 22) are the measured value for cells plus compound minus the value for the vehicle control for the same cell preparation. The EPO values for the vehicle control for the cell preparations varied from 0-12.5 mIU/mL.

Cc1nc(C(=O)NCC(=O)O)c(O)c2ccc(Oc3ccccc3)cc12.NCCO [Compound A ethanolamine salt, [(4-hydroxy-1-methyl-7-phenoxy-isoquinoline-3-carbonyl)-amino]-acetic acid ethanolamine salt]
XRPD pattern / form after storage [1]: Pattern 3

Cc1nc(C(=O)NCC(=O)O)c(O)c2ccc(Oc3ccccc3)cc12 [Compound A Form D, [(4-hydroxy-1-methyl-7-phenoxy-isoquinoline-3-carbonyl)-amino]-acetic acid DMSO:water solvate]
form conversion ([1]; left drying at ambient temperature): converted to Form A

Cc1nc(C(=O)NCC(=O)O)c(O)c2ccc(Oc3ccccc3)cc12 [Compound A Form A, [(4-hydroxy-1-methyl-7-phenoxy-isoquinoline-3-carbonyl)-amino]-acetic acid]
relative stability of crystalline forms ([1]; among Form B, C, and D of Compound A): most stable crystalline form
moisture sorption weight gain (Moisture sorption): approximately 0.2%
Cell EPO (Hep3B cells): 182 mIU/mL

[(4-hydroxy-1-methyl-7-phenoxy-isoquinoline-3-carbonyl)-amino]-acetic acid diethanolamine salt [Compound A diethanolamine salt]
XRPD pattern / form after storage [1]: Pattern 2

[(4-hydroxy-1-methyl-7-phenoxy-isoquinoline-3-carbonyl)-amino]-acetic acid hemihydrate [Compound A Form B]
form conversion on storage ([1]; ambient temperature, full month (32 days), high resolution XRPD): almost completely reverted to anhydrous Form A
crystalline pattern change on storage ([1]; stored at 25° C./96% RH for twelve days): reverting to Form A
